pIC50: −log10 of the molar value.

This note sets out measurements from ChEMBL document CHEMBL4261502, “Histone lysine methyltransferase structure activity relationships that allow for segregation of G9a inhibition and anti-Plasmodium activity” (Medchemcomm, 2017).

This test relates to Plasmodium falciparum. Nature of the test: Antiplasmodial activity against Plasmodium falciparum 3D7 after 3 days by SYBR green1 dye based assay. The test is classed as functional, organism-based. Particulars: 3D7, 72 h.
For `COc1cc2c(NC3CCN(C)CC3)nc(N3CCCN(C)CC3)nc2cc1OCCN(C)C`, the pIC50 is less than 5.70. Compound `COc1cc2c(NC3CCN(C)CC3)nc(N3CCCN(C)CC3)nc2cc1OCCCN1CCCC1` showed a pIC50 of less than 5.70. With `COc1cc2c(NC3CCN(C)CC3)nc(N3CCCN(C)CC3)nc2cc1OCCCN1CCCCC1`, the pIC50 is less than 5.70. As for `COc1cc2c(NC3CCN(C)CC3)nc(N3CCCN(C)CC3)nc2cc1OCc1ccccc1`, the figure is 7.37. `COc1cc2nc(N3CCCN(C)CC3)nc(NC3CCN(Cc4ccccc4)CC3)c2cc1OC` showed a pIC50 of 7.37. `COc1cc2nc(N3CCN(C)CC3)nc(NC3CCN(C)CC3)c2cc1OC`: the negative-log IC50 (pIC50) was less than 6.52. The compound `COc1cc2c(NC3CCN(C)CC3)nc(N3CCCN(C)CC3)nc2cc1OCCCN(C)C` had a pIC50 of less than 5.70. The compound `COc1cc2nc(N3CCCN(C)CC3)nc(NC3CCN(C)CC3)c2cc1OC` gave a pIC50 of less than 6.52.
